Measured values as given in article doi:10.1101/2024.07.21.604522v1 (biorxiv, 2024).

Target: T1, human ChaC1 (ChaC1p) (Homo sapiens, UniProt Q9BUX1)
T1 sequence (Q9BUX1 1-222): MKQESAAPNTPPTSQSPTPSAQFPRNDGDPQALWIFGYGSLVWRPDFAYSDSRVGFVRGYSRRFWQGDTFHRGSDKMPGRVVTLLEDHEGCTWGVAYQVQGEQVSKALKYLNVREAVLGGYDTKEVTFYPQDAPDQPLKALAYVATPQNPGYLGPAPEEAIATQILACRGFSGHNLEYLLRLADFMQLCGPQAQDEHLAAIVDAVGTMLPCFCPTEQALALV
Assay: ChaC1p-Dug1p coupled assay, cysteine by ninhydrin
Assay type: biochemical

SMILES: O=C1C=CC(=O)c2c(O)cccc21 [juglone]
- IC50: 8.7 µM
